Experiments:
SARS-CoV-2 = assay: Cytopathic effect (CPE) suppression effect confirmation test using HEK293T/ACE2-TMPRSS2 cells; type: cell-based; settings: Severe acute respiratory syndrome coronavirus 2, HEK-293T; 50% SARS-CoV-2 infected cell death inhibitory concentration; HEK293T/ACE2-TMPRSS2 cells; read-out: EC50
[1] = biological target: Recombinant SARS-CoV-2 3CL Protease (Severe acute respiratory syndrome coronavirus 2 (2019-nCoV) (SARS-CoV-2), UniProt P0DTD1); assay: biochemical; type: biochemical; settings: 50% SARS-CoV-2 3CL protease inhibitory concentration; read-out: IC50

## CC(C)(O)Cc1c(-c2ccc(F)c(Cl)c2)c(=O)n(-c2cncc(Cl)c2)c(=O)n1CC#N [Compound I-308]
SARS-CoV-2
  EC50: < 100 nM
[1]
  IC50: < 10 nM

## N#CCn1c(N2CC(F)C2)c(-c2ccc(F)c(Cl)c2)c(=O)n(-c2cncc(Cl)c2)c1=O [Compound I-309]
SARS-CoV-2
  EC50: < 100 nM
[1]
  IC50: < 10 nM

## N#CCn1c(N2CC(C(F)(F)F)C2)c(-c2ccc(F)c(Cl)c2)c(=O)n(-c2cncc(C#N)c2)c1=O [Compound I-310]
SARS-CoV-2
  EC50: < 100 nM
[1]
  IC50: < 10 nM

## N#CCn1c(N2CC(OC(F)(F)F)C2)c(-c2ccc(F)c(Cl)c2)c(=O)n(-c2cncc(C#N)c2)c1=O [Compound I-311]
SARS-CoV-2
  EC50: < 100 nM
[1]
  IC50: < 10 nM

## N#CCn1c(N2CC(C(F)F)C2)c(-c2ccc(F)c(Cl)c2)c(=O)n(-c2cncc(C#N)c2)c1=O [Compound I-312]
SARS-CoV-2
  EC50: < 100 nM
[1]
  IC50: < 10 nM

## CC(C)(O)[C@@H]1CCN(c2c(-c3ccc(F)c(Cl)c3)c(=O)n(-c3cncc(C#N)c3)c(=O)n2CC#N)C1 [Compound I-313]
SARS-CoV-2
  EC50: < 100 nM
[1]
  IC50: < 10 nM

## Cc1cc(-c2c(-c3ccc(F)c(Cl)c3)c(=O)n(-c3cncc(Cl)c3)c(=O)n2CC#N)on1 [Compound I-314]
SARS-CoV-2
  EC50: < 100 nM
[1]
  IC50: < 10 nM

## N#CCn1c(N2CC3(C2)CC(F)(F)C3)c(-c2ccc(F)c(F)c2)c(=O)n(-c2cncc(Cl)c2)c1=O [Compound I-315]
SARS-CoV-2
  EC50: < 100 nM
[1]
  IC50: < 10 nM

## N#CCn1c(N2CC(C(F)(F)F)C2)c(-c2ccc(F)c(F)c2)c(=O)n(-c2cncc(Cl)c2)c1=O [Compound I-316]
SARS-CoV-2
  EC50: < 100 nM
[1]
  IC50: < 10 nM

## N#CCn1c(N2CC(O)(C(F)(F)F)C2)c(-c2ccc(F)c(F)c2)c(=O)n(-c2cncc(Cl)c2)c1=O [Compound I-317]
SARS-CoV-2
  EC50: < 100 nM
[1]
  IC50: < 10 nM

## N#CCn1c(N2CC(OC(F)(F)F)C2)c(-c2ccc(F)c(F)c2)c(=O)n(-c2cncc(Cl)c2)c1=O [Compound I-318]
SARS-CoV-2
  EC50: < 100 nM
[1]
  IC50: < 10 nM

## N#CCn1c(N2CC(OC(F)F)C2)c(-c2ccc(F)c(F)c2)c(=O)n(-c2cncc(Cl)c2)c1=O [Compound I-319]
SARS-CoV-2
  EC50: < 100 nM
[1]
  IC50: < 10 nM

## N#CCn1c(N2C[C@@H]3C[C@H]2CO3)c(-c2ccc(F)c(F)c2)c(=O)n(-c2cncc(Cl)c2)c1=O [Compound I-320]
SARS-CoV-2
  EC50: < 100 nM
[1]
  IC50: < 10 nM

## N#CCn1c(N2CC(O)(c3ncccn3)C2)c(-c2ccc(F)c(F)c2)c(=O)n(-c2cncc(Cl)c2)c1=O [Compound I-321]
SARS-CoV-2
  EC50: < 100 nM
[1]
  IC50: < 10 nM

## N#CCn1c(N2CC(O)C2)c(-c2ccc(F)c(F)c2)c(=O)n(-c2cncc(Cl)c2)c1=O [Compound I-322]
SARS-CoV-2
  EC50: < 100 nM
[1]
  IC50: < 10 nM

## N#CCn1c(N2CC3(C2)CC(F)(F)C3)c(-c2ccc(F)c(Cl)c2)c(=O)n(-c2cnc3cc(F)c(F)cn23)c1=O [Compound I-323]
SARS-CoV-2
  EC50: < 100 nM
[1]
  IC50: < 10 nM

## N#CCn1c(CCC(F)(F)F)c(-c2ccc(F)c(Cl)c2)c(=O)n(-c2cncc(Cl)c2)c1=O [Compound I-324]
SARS-CoV-2
  EC50: < 100 nM
[1]
  IC50: < 10 nM

## N#CCn1c(N2CC3(C2)CC(F)(F)C3)c(-c2ccc(F)c(Cl)c2)c(=O)n(-c2cncc(OCF)c2)c1=O [Compound I-325]
SARS-CoV-2
  EC50: < 100 nM
[1]
  IC50: < 10 nM

## N#CCn1c(N2CCC(F)(F)CC2)c(-c2cc(F)c(F)c(F)c2)c(=O)n(-c2cncc(Cl)c2)c1=O [Compound I-326]
SARS-CoV-2
  EC50: < 100 nM
[1]
  IC50: < 10 nM

## N#CCn1c(N2CCC(F)(F)CC2)c(-c2cc(F)c(F)c(Cl)c2)c(=O)n(-c2cncc(Cl)c2)c1=O [Compound I-327]
SARS-CoV-2
  EC50: < 100 nM
[1]
  IC50: < 10 nM

## Cc1cc(-c2c(N3CCC(F)(F)CC3)n(CC#N)c(=O)n(-c3cncc(Cl)c3)c2=O)cs1 [Compound I-328]
SARS-CoV-2
  EC50: < 100 nM
[1]
  IC50: 10 to 100 nM

## N#CCn1c(N2CCC(F)(F)CC2)c(-c2csc3ccccc23)c(=O)n(-c2cncc(Cl)c2)c1=O [Compound I-329]
SARS-CoV-2
  EC50: < 100 nM
[1]
  IC50: < 10 nM

## N#CCn1c(N2CCC(F)(F)CC2)c(-c2cc(Cl)cc(C#N)c2)c(=O)n(-c2cncc(Cl)c2)c1=O [Compound I-330]
SARS-CoV-2
  EC50: < 100 nM
[1]
  IC50: < 10 nM

## N#CCn1c(N2CCC(F)(F)CC2)c(-c2cc(O)cc(Cl)c2)c(=O)n(-c2cncc(Cl)c2)c1=O [Compound I-331]
SARS-CoV-2
  EC50: < 100 nM
[1]
  IC50: < 10 nM

## N#CCn1c(N2CC3(C2)CC(F)(F)C3)c(-c2ccc(F)c(Cl)c2)c(=O)n(-c2cncc(OC(F)F)n2)c1=O [Compound I-332]
SARS-CoV-2
  EC50: < 100 nM
[1]
  IC50: < 10 nM

## N#CCn1c(N2CC(O)(C(F)F)C2)c(-c2cc(F)c(F)c(Cl)c2)c(=O)n(-c2cncc(Cl)c2)c1=O [Compound I-333]
SARS-CoV-2
  EC50: < 100 nM
[1]
  IC50: < 10 nM

## N#CCn1c(N2CC(OC(F)(F)F)C2)c(-c2ccc(F)c(Cl)c2)c(=O)n(-c2cncc(C(F)(F)F)n2)c1=O [Compound I-334]
SARS-CoV-2
  EC50: < 100 nM
[1]
  IC50: < 10 nM

## N#CCn1c(N2CC(OC(F)F)C2)c(-c2ccc(F)c(Cl)c2)c(=O)n(-c2cncc(C(F)(F)F)n2)c1=O [Compound I-335]
SARS-CoV-2
  EC50: < 100 nM
[1]
  IC50: < 10 nM

## N#CCn1c(N2CC(O)(c3ncccn3)C2)c(-c2ccc(F)c(Cl)c2)c(=O)n(-c2cncc(C(F)F)n2)c1=O [Compound I-336]
SARS-CoV-2
  EC50: < 100 nM
[1]
  IC50: < 10 nM

## Cc1cncc(-n2c(=O)c(-c3ccc(F)c(Cl)c3)c(N3CC(O)(c4ncccn4)C3)n(CC#N)c2=O)n1 [Compound I-337]
SARS-CoV-2
  EC50: < 100 nM
[1]
  IC50: < 10 nM

## N#CCn1c(N2CC(F)(C3CC3)C2)c(-c2ccc(F)c(Cl)c2)c(=O)n(-c2cncc(C#N)c2)c1=O [Compound I-338]
SARS-CoV-2
  EC50: < 100 nM
[1]
  IC50: < 10 nM

## N#CCn1c(N2CC3(C2)CC(F)(F)C3)c(-c2ccc(F)c(C(F)F)c2)c(=O)n(-c2cncc(Cl)c2)c1=O [Compound I-339]
SARS-CoV-2
  EC50: < 100 nM
[1]
  IC50: < 10 nM

## N#CCn1c(N2CC(O)(C(F)(F)F)C2)c(-c2ccc(F)c(C(F)F)c2)c(=O)n(-c2cncc(Cl)c2)c1=O [Compound I-340]
SARS-CoV-2
  EC50: < 100 nM
[1]
  IC50: < 10 nM

## N#CCn1c(N2CC(C(F)(F)F)C2)c(-c2ccc(F)c(C(F)F)c2)c(=O)n(-c2cncc(Cl)c2)c1=O [Compound I-341]
SARS-CoV-2
  EC50: < 100 nM
[1]
  IC50: < 10 nM

## N#CCn1c(N2CC(OC(F)F)C2)c(-c2ccc(F)c(C(F)F)c2)c(=O)n(-c2cncc(Cl)c2)c1=O [Compound I-342]
SARS-CoV-2
  EC50: < 100 nM
[1]
  IC50: < 10 nM

## N#CCn1c(N2C[C@@H]3C[C@H]2CO3)c(-c2ccc(F)c(C(F)F)c2)c(=O)n(-c2cncc(Cl)c2)c1=O [Compound I-343]
SARS-CoV-2
  EC50: < 100 nM
[1]
  IC50: < 10 nM

## Cc1cc(-n2c(=O)c(-c3ccc(F)c(Cl)c3)c(N3CC4(C3)CC(F)(F)C4)n(CC#N)c2=O)cc(=O)o1 [Compound I-344]
SARS-CoV-2
  EC50: < 100 nM
[1]
  IC50: 10 to 100 nM

## N#CCn1c(N2CC(O)(C(F)F)C2)c(-c2ccc(F)c(Cl)c2)c(=O)n(-c2cncc(C(F)F)n2)c1=O [Compound I-345]
SARS-CoV-2
  EC50: < 100 nM
[1]
  IC50: < 10 nM

## N#CCn1c(N2CC(O)(c3ncccn3)C2)c(-c2ccc(F)c(Cl)c2)c(=O)n(-c2cncc(OCF)c2)c1=O [Compound I-346]
SARS-CoV-2
  EC50: < 100 nM
[1]
  IC50: < 10 nM

## N#CCn1c(N2CC(F)(C3CC3)C2)c(-c2ccc(F)c(Cl)c2)c(=O)n(-c2cncc(OCF)c2)c1=O [Compound I-347]
SARS-CoV-2
  EC50: < 100 nM
[1]
  IC50: < 10 nM

## N#CCn1c(C2(O)CCC2)c(-c2ccc(F)c(Cl)c2)c(=O)n(-c2cncc(Cl)c2)c1=O [Compound I-348]
SARS-CoV-2
  EC50: < 100 nM
[1]
  IC50: 10 to 100 nM

## N#CCn1c(C2=CCC2)c(-c2ccc(F)c(Cl)c2)c(=O)n(-c2cncc(Cl)c2)c1=O [Compound I-349]
SARS-CoV-2
  EC50: < 100 nM
[1]
  IC50: 10 to 100 nM

## N#CCn1c(CCC(F)F)c(-c2ccc(F)c(Cl)c2)c(=O)n(-c2cncc(Cl)c2)c1=O [Compound I-350]
SARS-CoV-2
  EC50: < 100 nM
[1]
  IC50: < 10 nM

## N#CCn1c(N2CC(OC(F)(F)F)C2)c(-c2ccc(F)c(Cl)c2)c(=O)n(-c2cnc3cc(F)ccn23)c1=O [Compound I-351]
SARS-CoV-2
  EC50: < 100 nM
[1]
  IC50: < 10 nM

## N#CCn1c(N2CC(C(F)(F)F)C2)c(-c2ccc(F)c(Cl)c2)c(=O)n(-c2cncc(OCF)c2)c1=O [Compound I-352]
SARS-CoV-2
  EC50: < 100 nM
[1]
  IC50: < 10 nM

## N#CCn1c(N2CC3(C2)CC(F)(F)C3)c(-c2ccc(F)c(Cl)c2)c(=O)n(-c2cncc(OCF)n2)c1=O [Compound I-353]
SARS-CoV-2
  EC50: < 100 nM
[1]
  IC50: < 10 nM

## CC1(O)CN(c2c(-c3ccc(F)c(Cl)c3)c(=O)n(-c3cncc(OC(F)F)n3)c(=O)n2CC#N)C1 [Compound I-354]
SARS-CoV-2
  EC50: < 100 nM
[1]
  IC50: < 10 nM

## CC1(O)CN(c2c(-c3ccc(F)c(Cl)c3)c(=O)n(-c3cncc(OCF)n3)c(=O)n2CC#N)C1 [Compound I-355]
SARS-CoV-2
  EC50: < 100 nM
[1]
  IC50: < 10 nM

Reference: patent US20250092056A1, “URACIL DERIVATIVES HAVING VIRUS REPLICATION INHIBITORY ACTIVITY AND PHARMACEUTICAL COMPOSITION COMPRISING THE SAME” (Shionogi & Co., Ltd., priority 2022, published 2025)
